Data published in patent US9365522B2, “Pyrazole amide derivative” (AMGEN INC., priority 2015, dated 2016).

Target: T1, human RORγ-LBD (Homo sapiens, UniProt P51449)
T1 construct: made in house; host or cells: E. coli (BL-21)
T1 sequence (P51449 262-518): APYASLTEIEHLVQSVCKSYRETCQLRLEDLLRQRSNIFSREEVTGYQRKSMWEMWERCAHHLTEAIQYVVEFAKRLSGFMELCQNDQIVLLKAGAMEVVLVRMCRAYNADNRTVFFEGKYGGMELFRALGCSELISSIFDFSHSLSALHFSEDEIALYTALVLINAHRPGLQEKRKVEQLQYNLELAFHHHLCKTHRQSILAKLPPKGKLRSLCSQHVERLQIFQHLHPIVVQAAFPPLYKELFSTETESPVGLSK
Test: ROR gamma coactivator peptide recruitment Alphascreen assay (RORγ-LBD binding to GRIP1 coactivator peptide)
Assay type: biochemical
Conditions: 5 nM human RORγ-LBD, 30 nM 7-β-hydroxycholesterol, 50 nM biotinylated GRIP1 coactivator peptide, overnight incubation at room temperature; read-out: result (pIC50, RORγ coactivator peptide recruitment Alphascreen assay) (converted)
Outline: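 His/Flag-tagged human RORγ-LBD (aa 262-518, E. coli-expressed, 5 nM) with agonist 7-β-hydroxycholesterol (30 nM) and biotinylated GRIP1 LXXLL peptide (50 nM) in HEPES pH 7.4 buffer, 2.5% DMSO. Compound 1-in-2 dilutions; Alphascreen bead signal read after overnight incubation at room temperature; pIC50 calculated.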

IC50 | SMILES
39.8 nM | CC(C)(C)[C@H]1C[C@@H](N(CC(=O)c2c(Cl)cncc2Cl)C(=O)c2cnn([C@H]3CC[C@](C)(C(=O)O)CC3)c2C(F)(F)F)C1 [Example 699, trans-4-(4-((2-(3,5-dichloro-4-pyridinyl)-2-oxoethyl)(cis-3-(2-methyl-2-propanyl)cyclobutyl)carbamoyl)-5-(trifluoromethyl)-1H-pyrazol-1-yl)-1-methylcyclohexanecarboxylic acid]
2.95 nM | C[C@H]1C[C@@H](n2ncc(C(=O)N(CC(=O)c3c(Cl)cncc3Cl)CC(C)(C)C(F)(F)F)c2C(F)(F)F)CC[C@@H]1C(=O)O (stereo in doubt) [Example 864, (1S,2S,4S)-4-(4-((2-(3,5-dichloro-4-pyridinyl)-2-oxoethyl)(3,3,3-trifluoro-2,2-dimethylpropyl)carbamoyl)-5-(trifluoromethyl)-1H-pyrazol-1-yl)-2-methylcyclohexanecarboxylic acid]
2.45 nM | Cc1cc(Cl)c(C(=O)CN(CCC(C)C)C(=O)c2cnn([C@H]3CC[C@](C)(C(=O)O)CC3)c2C(F)(F)F)c(Cl)c1 [Example 704, trans-4-(4-((2-(2,6-dichloro-4-methylphenyl)-2-oxoethyl)(3-methylbutyl)carbamoyl)-5-(trifluoromethyl)-1H-pyrazol-1-yl)-1-methylcyclohexanecarboxylic acid]
1.86 nM | Cc1cc(Cl)c(CCN(CC2(C)CCCCC2)C(=O)c2cnn(C3CCC(C(=O)O)CC3)c2C(F)(F)F)c(Cl)c1 (stereo in doubt) [Example 511, trans-4-(4-((2-(2,6-dichloro-4-methylphenyl)ethyl)((1-methylcyclohexyl)methyl)carbamoyl)-5-(trifluoromethyl)-1H-pyrazol-1-yl)cyclohexanecarboxylic acid]
19.5 nM | CC(C)(C)CN(CCc1c(Cl)cncc1Cl)C(=O)c1cnn([C@H]2CC[C@H](C(=O)O)CC2)c1C(F)(F)F [Example 547]
794 nM | CC1(C)CC(N(CC(=O)c2c(Cl)cccc2Cl)C(=O)c2cnn([C@H]3CC[C@@H](C(=O)O)CC3)c2C(F)(F)F)C1 [Example 600, cis-4-(4-((2-(2,6-dichlorophenyl)-2-oxoethyl)(3,3-dimethylcyclobutyl)carbamoyl)-5-(trifluoromethyl)-1H-pyrazol-1-yl)cyclohexanecarboxylic acid]
302 nM | O=C(CN(CC1(F)CCCC1)C(=O)c1cnn([C@H]2CC[C@@H](C(=O)O)CC2)c1C(F)(F)F)c1c(Cl)cncc1Cl [Example 667, cis-4-(4-((2-(3,5-dichloro-4-pyridinyl)-2-oxoethyl)((1-fluorocyclopentyl)methyl)carbamoyl)-5-(trifluoromethyl)-1H-pyrazol-1-yl)cyclohexanecarboxylic acid]
15.5 nM | COC1(CN(CC(=O)c2c(Cl)cncc2Cl)C(=O)c2cnn([C@H]3CC[C@](C)(C(=O)O)CC3)c2C(F)(F)F)CCCC1 [Example 638, trans-4-(4-((2-(3,5-dichloro-4-pyridinyl)-2-oxoethyl)((1-methoxycyclopentyl)methyl)carbamoyl)-5-(trifluoromethyl)-1H-pyrazol-1-yl)-1-methylcyclohexanecarboxylic acid]
10 nM | Cc1cc(Cl)c(C(=O)CN(C[C@@H]2CC(C)(C)O2)C(=O)c2cnn([C@H]3CC[C@](C)(C(=O)O)CC3)c2C(F)(F)F)c(Cl)c1 [Example 723, trans-4-(4-((2-(2,6-dichloro-4-methylphenyl)-2-oxoethyl)(((2S)-4,4-dimethyl-2-oxetanyl)methyl)carbamoyl)-5-(trifluoromethyl)-1H-pyrazol-1-yl)-1-methylcyclohexanecarboxylic acid]
25.7 nM | C[C@@]1(CN(CC(=O)c2c(Cl)cncc2Cl)C(=O)c2cnn([C@H]3CC[C@](C)(C(=O)O)CC3)c2C(F)(F)F)CCCO1 [Example 660, trans-4-(4-((2-(3,5-dichloro-4-pyridinyl)-2-oxoethyl)(((2S)-2-methyltetrahydro-2-furanyl)methyl)carbamoyl)-5-(trifluoromethyl)-1H-pyrazol-1-yl)-1-methylcyclohexanecarboxylic acid]
1.62 nM | CC1(CN(CC(=O)c2c(Cl)cc(F)cc2Cl)C(=O)c2cnn([C@H]3CC[C@](C)(C(=O)O)CC3)c2C(F)(F)F)CCCCC1 [Example 696, trans-4-(4-((2-(2,6-dichloro-4-fluorophenyl)-2-oxoethyl)((1-methylcyclohexyl)methyl)carbamoyl)-5-(trifluoromethyl)-1H-pyrazol-1-yl)-1-methylcyclohexanecarboxylic acid]
33.9 nM | CC1(C)CC[C@H]1N(CC(=O)c1c(Cl)cncc1Cl)C(=O)c1cnn([C@H]2CC[C@](C)(C(=O)O)CC2)c1C(F)(F)F [Example 616, trans-4-(4-((2-(3,5-dichloro-4-pyridinyl)-2-oxoethyl)((1R)-2,2-dimethylcyclobutyl)carbamoyl)-5-(trifluoromethyl)-1H-pyrazol-1-yl)-1-methylcyclohexanecarboxylic acid]
97.7 nM | CC1(C)C[C@H](CN(CC(=O)c2c(Cl)cncc2Cl)C(=O)c2cnn([C@H]3CC[C@](C)(C(=O)O)CC3)c2C(F)(F)F)O1 [Example 685, trans-4-(4-((2-(3,5-dichloro-4-pyridinyl)-2-oxoethyl)(((2R)-4,4-dimethyl-2-oxetanyl)methyl)carbamoyl)-5-(trifluoromethyl)-1H-pyrazol-1-yl)-1-methylcyclohexanecarboxylic acid]
4.37 nM | C[C@]1(C(=O)O)CC[C@H](n2ncc(C(=O)N(CC(=O)c3c(Cl)cccc3Cl)[C@@H]3CC34CCCC4)c2C(F)(F)F)CC1 [Example 652, trans-4-(4-((2-(2,6-dichlorophenyl)-2-oxoethyl)((1R)-spiro[2.4]hept-1-yl)carbamoyl)-5-(trifluoromethyl)-1H-pyrazol-1-yl)-1-methylcyclohexanecarboxylic acid]
7.94 nM | Cc1cc(C)c(C(=O)CN(Cc2cc(F)cc(F)c2)C(=O)c2cnn([C@H]3CC[C@](C)(C(=O)O)CC3)c2C(F)(F)F)c(Cl)n1 [Example 702, trans-4-(4-((2-(2-chloro-4,6-dimethyl-3-pyridinyl)-2-oxoethyl)(3,5-difluorobenzyl)carbamoyl)-5-(trifluoromethyl)-1H-pyrazol-1-yl)-1-methylcyclohexanecarboxylic acid]
3.09 nM | C[C@]1(C(=O)O)CC[C@H](n2ncc(C(=O)N(CC(=O)c3c(Cl)cccc3Cl)CC3CC4(CC4)C3)c2C(F)(F)F)CC1 [Example 566, trans-4-(4-((2-(2,6-dichlorophenyl)-2-oxoethyl)(spiro[2.3]hex-5-ylmethyl)carbamoyl)-5-(trifluoromethyl)-1H-pyrazol-1-yl)-1-methylcyclohexanecarboxylic acid]
14.1 nM | C[C@H]1C[C@H](n2ncc(C(=O)N(CC(=O)c3c(Cl)cncc3Cl)CC3(F)CC3)c2C(F)(F)F)CC[C@H]1C(=O)O (stereo in doubt) [Example 737, (1R,2S,4R)-4-(4-((2-(3,5-dichloro-4-pyridinyl)-2-oxoethyl)((1-fluorocyclopropyl)methyl)carbamoyl)-5-(trifluoromethyl)-1H-pyrazol-1-yl)-2-methylcyclohexanecarboxylic acid]
12.9 nM | C[C@@]1(CN(CC(=O)c2c(Cl)ccc(F)c2Cl)C(=O)c2cnn([C@H]3CC[C@](C)(C(=O)O)CC3)c2C(F)(F)F)CCCO1 [Example 815, trans-4-(4-((2-(2,6-dichloro-3-fluorophenyl)-2-oxoethyl)(((2S)-2-methyltetrahydro-2-furanyl)methyl)carbamoyl)-5-(trifluoromethyl)-1H-pyrazol-1-yl)-1-methylcyclohexanecarboxylic acid]
95.5 nM | O=C(O)C1CCC(n2ncc(C(=O)N(CCc3c(Cl)cncc3Cl)CC3(F)CCCC3)c2C(F)(F)F)CC1 (stereo in doubt) [Example 609, cis-4-(4-((2-(3,5-dichloro-4-pyridinyl)ethyl)((1-fluorocyclopentyl)methyl)carbamoyl)-5-(trifluoromethyl)-1H-pyrazol-1-yl)cyclohexanecarboxylic acid]
174 nM | COc1cc(Cl)c(C(=O)CN(CC2(F)CCCC2)C(=O)c2cnn([C@H]3CC[C@@H](C(=O)O)CC3)c2C(F)(F)F)c(Cl)c1 [Example 590, cis-4-(4-((2-(2,6-dichloro-4-methoxyphenyl)-2-oxoethyl)((1-fluorocyclopentyl)methyl)carbamoyl)-5-(trifluoromethyl)-1H-pyrazol-1-yl)cyclohexanecarboxylic acid]
1.45 nM | C[C@]1(C(=O)O)CC[C@H](n2ncc(C(=O)N(CC(=O)c3c(Cl)cc(F)cc3Cl)CC3CCCCC3)c2C(F)(F)F)CC1 [Example 664, trans-4-(4-((cyclohexylmethyl)(2-(2,6-dichloro-4-fluorophenyl)-2-oxoethyl)carbamoyl)-5-(trifluoromethyl)-1H-pyrazol-1-yl)-1-methylcyclohexanecarboxylic acid]
4.47 nM | C[C@]1(C(=O)O)CC[C@H](n2ncc(C(=O)N(CCc3c(Cl)cncc3Cl)CC3(F)CCCC3)c2C(F)(F)F)CC1 [Example 606, trans-4-(4-((2-(3,5-dichloro-4-pyridinyl)ethyl)((1-fluorocyclopentyl)methyl)carbamoyl)-5-(trifluoromethyl)-1H-pyrazol-1-yl)-1-methylcyclohexanecarboxylic acid]
